Read-outs that look alike come from different tables or passages of the source.
Assays:
[1] = system: latent HIV-1 in ACH2 cell line; experiment: Latent HIV-1 reactivation in ACH2 cells (quantitative PCR of early and late viral RNA transcripts); type: cell-based
Protocol: Three different cell lines of HIV-1 latency were used in this study. These included J89GFP, U1 and ACH-2 cells. The J89GFP cells were a kind gift from Dr. David Levy. The ACH-2 and U1 cells were obtained through the AIDS Research and Reference Reagent Program, Division of AIDS, NIAID, NIH: Dr. Thomas Folks contributor [19]–[21]. Reactivation of latent HIV-1 in the J89GFP cells was measured by quantifying the percentage of EGFP positive cells using a BD FACScan flow cytometer with BD FACSDiva software (BD Biosciences, CA), as described previously. Reactivation of latent HIV-1 in the ACH-2 and U 1 cells was assessed by quantitative analysis of initiated and elongated HIV-1 transcripts, as described previously. All 3 cell lines were maintained in RMPI 1640 medium supplemented with 10% FBS, 0.3 mg/mL L-glutamine, 100 U/mL penicillin, and 100 µg/mL streptomycin at 37°C in humidified air with 5% CO2.
Figure 2 Latent HIV-1 reactivation activity of 57704, alone and in combination with other inducing agents, in the U1 and ACH2 cell line models of virus latency. HIV-1 expression was assessed by quantitative PCR analysis of early and late viral RNA transcripts. Where appropriate, TNFα was used as an activation control. (A) Latent HIV-1 reactivation of activity 57704 in the J89GFP cell line. […] EC50 values were determined in Sigma Plot by nonlinear regression, as described previously. […]

HDAC2 = biological target: T1, HDAC2 (Homo sapiens, UniProt Q92769); experiment: biochemical; settings: recombinant purified enzyme; read-out: 57704 IC50, HDAC2
T1 construct: purchased BPS Bioscience (San Diego, CA)
Protocol: The lysine deacetylase activity of HDACs 1, 2, 3, and 8 was assessed using the Fluorogenic HDAC Assay (BPS Bioscience, San Diego, CA) according to the manufacturer's instructions. […] All assays were carried out under steady-state conditions and the assay read-out was optimized for linearity both as a function of time and enzyme concentration. The formation of the fluorescent product was measured using a SpectraMax M2 Plate Reader (Molecular Devices, CA). The excitation and emission wavelengths were 360 nm and 450 nm, respectively.

PI3K p110γ RNA = experiment: PI3K isoform RNA transcript levels in J89GFP cells, p110γ; type: cell-based; settings: 5 µM
HDAC1 = biological target: T2, HDAC1 (Homo sapiens, UniProt Q13547); experiment: Fluorogenic HDAC activity assay, HDAC1; type: biochemical
T2 construct: purchased BPS Bioscience (San Diego, CA)
Protocol: The lysine deacetylase activity of HDACs 1, 2, 3, and 8 was assessed using the Fluorogenic HDAC Assay (BPS Bioscience, San Diego, CA) according to the manufacturer's instructions. The HDAC3 used in this assay was complexed with human nuclear receptor co-repressor 2 (NCOR2; amino acids 395–489), which is an activating co-factor of this HDAC isoform. All assays were carried out under steady-state conditions and the assay read-out was optimized for linearity both as a function of time and enzyme concentration. The formation of the fluorescent product was measured using a SpectraMax M2 Plate Reader (Molecular Devices, CA). The excitation and emission wavelengths were 360 nm and 450 nm, respectively. […]

[2] = Cytotoxicity (MTT or CellTiter 96), 293T; type: cell-based; settings: human, 293T cells; 24 hour incubation; mean ± SD, 3 replicates
Protocol: (§1) Following a 24 hour incubation period, cell viability was measured using either the MTT (Roche Applied Science, Indianapolis, IN) or CellTiter 96 proliferation (Promega, WI) assay.

Akt phosphorylation = experiment: Western blot analysis of phosphorylated Akt in J89GFP cells; type: cell-based; settings: 5 µM 57704
Protocol: To gain insight into the mechanism by which 57704 reactivates latent HIV-1, we evaluated its activity in combination with inhibitors of different signaling pathways or kinases in J89GFP cells (Fig. 4A, B). […] To determine whether 57704 directly activated the PI3K/Akt signaling pathway, we next assessed the levels of Akt phosphorylation in the J89GFP cells after exposure to 5 µM 57704.

[3] = Cytotoxicity (MTT or CellTiter 96), CD8+-depleted MNC; type: cell-based; settings: human, CD8+-depleted mononuclear cells (MNC) from whole blood; 24 hour incubation; mean of 2 replicates
Protocol: as §1
CD8+T-cells were depleted from whole blood using RosetteSep Human CD8 Depletion Cocktail (StemCell Technologies, Vancouver, BC) according to manufacturer's instructions. 2×10^6 CD4^+ MNC cells were seeded in triplicate per treatment in 48-well plates and allowed to rest overnight. All wells were maintained in 81 nM efavirenz. […] Activation controls were treated with CD3/CD28 Dynabeads (Life Technologies, Grand Island, NY). After 7 days of incubation, supernatants from triplicate wells were pooled, centrifuged (500 g×5 min), and stored at −80°C. HIV-1 RNA levels in supernatants were determined using the COBAS® AmpliPrep/COBAS® TaqMan® HIV-1 Test, v2.0 (Roche, Indianapolis, IN).

T1 sequence (Q92769 whole entry): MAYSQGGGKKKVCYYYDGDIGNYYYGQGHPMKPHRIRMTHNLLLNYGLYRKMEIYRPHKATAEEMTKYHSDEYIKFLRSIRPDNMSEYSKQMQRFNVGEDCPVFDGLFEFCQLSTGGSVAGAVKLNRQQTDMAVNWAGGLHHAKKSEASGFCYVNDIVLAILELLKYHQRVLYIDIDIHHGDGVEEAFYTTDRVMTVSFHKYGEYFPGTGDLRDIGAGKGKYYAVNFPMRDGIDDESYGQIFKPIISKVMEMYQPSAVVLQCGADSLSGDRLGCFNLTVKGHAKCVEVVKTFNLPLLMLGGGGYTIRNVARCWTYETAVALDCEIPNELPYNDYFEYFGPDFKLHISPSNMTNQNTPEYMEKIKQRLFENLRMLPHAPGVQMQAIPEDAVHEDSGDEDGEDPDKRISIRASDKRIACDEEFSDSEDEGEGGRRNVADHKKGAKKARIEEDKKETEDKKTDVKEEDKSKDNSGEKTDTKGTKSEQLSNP
T2 sequence (Q13547 whole entry): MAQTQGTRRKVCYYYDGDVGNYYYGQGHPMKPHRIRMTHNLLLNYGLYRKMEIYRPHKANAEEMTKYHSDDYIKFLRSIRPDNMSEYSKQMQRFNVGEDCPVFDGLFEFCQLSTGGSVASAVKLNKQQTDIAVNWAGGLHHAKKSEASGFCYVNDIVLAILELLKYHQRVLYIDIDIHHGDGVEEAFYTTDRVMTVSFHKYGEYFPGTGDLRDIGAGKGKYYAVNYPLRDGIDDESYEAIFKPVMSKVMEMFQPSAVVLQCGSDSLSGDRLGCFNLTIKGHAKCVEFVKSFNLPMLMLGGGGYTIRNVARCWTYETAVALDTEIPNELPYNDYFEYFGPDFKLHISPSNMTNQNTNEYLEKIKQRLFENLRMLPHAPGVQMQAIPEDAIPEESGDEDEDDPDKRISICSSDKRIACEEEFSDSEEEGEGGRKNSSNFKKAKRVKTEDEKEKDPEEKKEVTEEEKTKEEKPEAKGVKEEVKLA

COc1cc2c(cc1OC)-c1c(OC)c(OC)cc3ccnc(c13)C2=O [Compound 57704, 1,2,9,10-tetramethoxy-7H-dibenzo[de,g]quinolin-7-one]
EC50 ([1]; Human immunodeficiency virus 1, ACH-2, read-out: EC50, activation of early HIV-1 gene transcript expression): 9 µM
EC50 ([1]; Human immunodeficiency virus 1, ACH-2, read-out: EC50, activation of late HIV-1 gene transcript expression): 6.2 µM
IC50 (HDAC2): > 50 µM
Effect on PI3K p110γ RNA transcript levels (PI3K p110γ RNA): no effect
IC50 (HDAC1): > 50 µM
CC50 at 24 h [2]: 106 ± 31.4 µM
Akt phosphorylation (Western blot) (Akt phosphorylation): increased Akt phosphorylation
CC50 at 24 h [3]: 80 µM

Reference: publication PMC3906007, “Discovery of a Small Molecule Agonist of Phosphatidylinositol 3-Kinase p110α That Reactivates Latent HIV-1” (PLoS ONE, 2014)
